By IC50 is commonly meant the concentration at which inhibition is half-maximal. Read a high IC50 as lower potency.

The results in this text go back to PMC9609971, “Benzimidazole Bearing Thiosemicarbazone Derivatives Act as Potent α-Amylase and α-Glucosidase Inhibitors; Synthesis, Bioactivity Screening and Molecular Docking Study” (Molecules, 2022).

Experiment [1] addresses crude intestinal α-glucosidase. In words: In vitro α-glucosidase activity assay (p-nitrophenyl-α-D-glucopyranoside substrate). To be noted: triplicate; ± SEM. It counts as biochemical. The method, then:
The α-Glucosidase activity was determined by a slight modification to the already-reported method. In a 96-well microplate, 10 μL of test samples (5 mg/mL DMSO solution) were reconstituted in 100 μL of 100 mM-phosphate buffer (pH 6.8) and incubated with 50 μL of crude intestinal α-glucosidase for 5 min before 50 μL substrate (5 mM, p-nitrophenyl-α-D-glucopyranoside prepared in the same buffer) was added. The release of p-nitrophenol was measured at 405 nm spectrophotometrically for 5 min after incubation with the substrate. Individual blanks for test samples were prepared to correct background absorbance where the substrate was replaced with 50 μL of the buffer. The control sample contained 10 μL DMSO in place of the test samples. All reactions were carried out in triplicate.
The percentage of enzyme inhibition was calculated as (1 − B/A) × 100.
Where A represents the absorbance of control without test samples, and B represents absorbance in the presence of test samples.

The target in experiment [2] is T1, Porcine pancreatic α-amylase (Sus scrofa, UniProt P00690).
T1 construct: α-amylase solution (Porcine pancreatic α-amylase); from tissue; host or cells: porcine pancreas (from the enzyme's name only)
T1 sequence (P00690 16-511): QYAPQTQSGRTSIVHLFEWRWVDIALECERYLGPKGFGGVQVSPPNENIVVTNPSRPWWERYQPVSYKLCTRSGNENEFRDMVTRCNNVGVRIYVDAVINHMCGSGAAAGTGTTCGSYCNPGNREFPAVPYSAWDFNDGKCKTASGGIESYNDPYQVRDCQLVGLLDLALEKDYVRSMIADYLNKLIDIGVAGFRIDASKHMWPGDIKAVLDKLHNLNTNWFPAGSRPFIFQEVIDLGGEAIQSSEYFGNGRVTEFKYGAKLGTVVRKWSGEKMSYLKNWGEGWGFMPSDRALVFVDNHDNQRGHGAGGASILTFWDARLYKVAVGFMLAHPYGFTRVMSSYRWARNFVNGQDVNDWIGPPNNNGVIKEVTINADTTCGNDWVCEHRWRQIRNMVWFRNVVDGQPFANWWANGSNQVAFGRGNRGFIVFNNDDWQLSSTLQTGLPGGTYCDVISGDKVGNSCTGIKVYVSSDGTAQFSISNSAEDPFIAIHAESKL
Description: In vitro α-amylase activity assay (starch/dinitrosalicylic acid). It counts as biochemical. Conditions: triplicate; ± SEM. The method, then: α-Amylase inhibition was determined by an assay modified by Kwon, Apostolidis & Shetty. A total of 40 μL of sample and 40 μL of 0.02 M sodium phosphate buffer (pH 6.9 with 0.006 M sodium chloride) containing α-amylase solution (Porcine pancreatic α-amylase) (0.5 mg/mL) were incubated at 25 °C for 10 min. After pre-incubation, 40 μL of a 1% starch solution in 0.02 M sodium phosphate buffer (pH 6.9 with 0.006 M sodium chloride) was added to each tube at 5 s intervals. The reaction mixtures were then incubated at 25 °C for 10 min. The reaction was stopped with 100 μL of dinitrosalicylic acid color reagent. The test tubes were then incubated in a boiling water bath for 5 min and cooled to room temperature. The reaction mixture was then diluted after adding 900 μL of distilled water, and the absorbance was measured at 540 nm. […] All reactions were carried out in triplicate.

Turning to `O=[N+]([O-])c1ccccc1/C=N/NC(=S)NN=C(CSc1nc2ccccc2[nH]1)c1ccc(-c2ccccc2)cc1` [derivative 7, N′-(2-((1H-Benzo[d]imidazol-2-yl)thio)-1-([1,1′-biphenyl]-4-yl)ethylidene)-2-((E)-2-nitrobenzylidene)hydrazine-1-carbothiohydrazide], the IC50 was found to be 14.2 ± 0.1 µM in experiment [1] and 16.1 ± 0.01 µM in experiment [2].

Take `O=[N+]([O-])c1ccc(/C=N/NC(=S)NN=C(CSc2nc3ccccc3[nH]2)c2ccc(-c3ccccc3)cc2)cc1` [derivative 8, N′-(2-((1H-Benzo[d]imidazol-2-yl)thio)-1-([1,1′-biphenyl]-4-yl)ethylidene)-2-((E)-4-nitrobenzylidene)hydrazine-1-carbothiohydrazide]: the results for the IC50 in experiment [1] and in experiment [2] were 17.2 ± 0.1 µM and 15.2 ± 0.2 µM, respectively.

For the compound `O=[N+]([O-])c1cccc(/C=N/NC(=S)NN=C(CSc2nc3ccccc3[nH]2)c2ccc(-c3ccccc3)cc2)c1` [derivative 9, N′-(2-((1H-Benzo[d]imidazol-2-yl)thio)-1-([1,1′-biphenyl]-4-yl)ethylidene)-2-((E)-3-nitrobenzylidene)hydrazine-1-carbothiohydrazide], the IC50 in experiment [1] stood at 14.2 ± 0.2 µM; in experiment [2] it was 13.1 ± 0.1 µM.

Consider `Oc1ccc(/C=N/NC(=S)NN=C(CSc2nc3ccccc3[nH]2)c2ccc(-c3ccccc3)cc2)cc1` [derivative 10, N′-(2-((1H-Benzo[d]imidazol-2-yl)thio)-1-([1,1′-biphenyl]-4-yl)ethylidene)-2-((E)-4-hydroxybenzylidene)hydrazine-1-carbothiohydrazide], for which the figures for the half-inhibitory concentration (IC50) in experiment [1] and in experiment [2] were 11.2 ± 0.1 µM and 10.2 ± 0.02 µM, respectively.

As to `O=[N+]([O-])c1ccccc1/C=N/NC(=S)NN=C(CSc1nc2ccccc2[nH]1)c1ccc(Cl)c(Cl)c1` [derivative 11, N′-(2-((1H-Benzo[d]imidazol-2-yl)thio)-1-(3,4-dichlorophenyl)ethylidene)-2-((E)-2-nitrobenzylidene)hydrazine-1-carbothiohydrazide], the results for the IC50 in experiment [1] and in experiment [2] were 4.2 ± 0.1 µM and 3.1 ± 0.1 µM, respectively.

As for `Oc1ccc(/C=N/NC(=S)NN=C(CSc2nc3ccccc3[nH]2)c2ccc(Cl)c(Cl)c2)cc1` [derivative 12, N′-(2-((1H-Benzo[d]imidazol-2-yl)thio)-1-(3,4-dichlorophenyl)ethylidene)-2-((E)-4-hydroxybenzylidene)hydrazine-1-carbothiohydrazide], the IC50 in experiment [1] amounted to 2.2 ± 0.2 µM; in experiment [2] it was 1.1 ± 0.2 µM.

For the compound `O=[N+]([O-])c1ccc(/C=N/NC(=S)NN=C(CSc2nc3ccccc3[nH]2)c2ccc(Cl)c(Cl)c2)cc1` [derivative 13, N′-(2-((1H-Benzo[d]imidazol-2-yl)thio)-1-(3,4-dichlorophenyl)ethylidene)-2-((E)-4-nitrobenzylidene)hydrazine-1-carbothiohydrazide], the IC50 in experiment [1] was found to be 3.1 ± 0.2 µM; in experiment [2] it was 2.1 ± 0.2 µM.

In the case of `O=[N+]([O-])c1cccc(/C=N/NC(=S)NN=C(CSc2nc3ccccc3[nH]2)c2ccc(Cl)c(Cl)c2)c1` [derivative 14, N′-(2-((1H-Benzo[d]imidazol-2-yl)thio)-1-(3,4-dichlorophenyl)ethylidene)-2-((E)-3-nitrobenzylidene)hydrazine-1-carbothiohydrazide], the values for the IC50 in experiment [1] and in experiment [2] were 7.1 ± 0.01 µM and 6.1 ± 0.2 µM, respectively.

As to `O=[N+]([O-])c1ccccc1/C=N/NC(=S)NN=C(CSc1nc2ccccc2[nH]1)c1ccc(Br)cc1` [derivative 15, N′-(2-((1H-Benzo[d]imidazol-2-yl)thio)-1-(4-bromophenyl)ethylidene)-2-((E)-2-nitrobenzylidene)hydrazine-1-carbothiohydrazide], the IC50 in experiment [1] was found to be 18.1 ± 0.2 µM; in experiment [2] it was 17.1 ± 0.01 µM.

Regarding `Oc1ccc(/C=N/NC(=S)NN=C(CSc2nc3ccccc3[nH]2)c2ccc(Br)cc2)cc1` [derivative 16, N′-(2-((1H-Benzo[d]imidazol-2-yl)thio)-1-(4-bromophenyl)ethylidene)-2-((E)-4-hydroxybenzylidene)hydrazine-1-carbothiohydrazide], the IC50 in experiment [1] amounted to 21.1 ± 0.01 µM; in experiment [2] it was 20.1 ± 0.2 µM.

For the compound `O=[N+]([O-])c1ccc(/C=N/NC(=S)NN=C(CSc2nc3ccccc3[nH]2)c2ccc(Br)cc2)cc1` [derivative 17, N′-(2-((1H-Benzo[d]imidazol-2-yl)thio)-1-(4-bromophenyl)ethylidene)-2-((E)-4-nitrobenzylidene)hydrazine-1-carbothiohydrazide], the values for the IC50 in experiment [1] and in experiment [2] were 16.1 ± 0.01 µM and 15.1 ± 0.2 µM, respectively.

Regarding `O=[N+]([O-])c1cccc(/C=N/NC(=S)NN=C(CSc2nc3ccccc3[nH]2)c2ccc(Br)cc2)c1` [derivative 18, N′-(2-((1H-Benzo[d]imidazol-2-yl)thio)-1-(4-bromophenyl)ethylidene)-2-((E)-3-nitrobenzylidene)hydrazine-1-carbothiohydrazide], the IC50 was 14.1 ± 0.01 µM in experiment [1] and 13.2 ± 0.2 µM in experiment [2].

On to `Fc1cccc(/C=N/NC(=S)N/N=C(\CSc2nc3ccccc3[nH]2)c2cccc(F)c2)c1` [derivative 19], for which the concentration for half-maximal inhibition (IC50) in experiment [1] was found to be 1.3 ± 0.2 µM; in experiment [2], 1.2 ± 0.2 µM.

As to `O=[N+]([O-])c1cccc(/C=N/NC(=S)N/N=C(\CSc2nc3ccccc3[nH]2)c2ccccc2)c1` [derivative 21, N′-((Z)-2-((1H-Benzo[d]imidazol-2-yl)thio)-1-phenylethylidene)-2-((E)-3-nitrobenzylidene)hydrazine-1-carbothiohydrazide], the results for the IC50 in experiment [1] and in experiment [2] were 22.1 ± 0.2 µM and 21.1 ± 0.01 µM, respectively.

In the case of “N′-((Z)-2-((1H-Benzo[d]imidazol-2-yl)thio)-1-(3-fluorophenyl)ethylidene)-2-((E)-2-methyl-4-nitrobenzylidene)hydrazine-1-carbothiohydrazide [derivative 20]”, the IC50 in experiment [1] was 1.6 ± 0.2 µM; in experiment [2], 1.4 ± 0.01 µM.
